Measured values: patent publication US20260103686A1, “MICROBIAL STRAIN, PROTEIN, AND METHOD FOR PRODUCING GALLIC ACID USING MICROBIAL STRAIN OR PROTEIN” (UNIVERSITY OF TSUKUBA, priority 2022, published 2026)
Like-named read-outs stand apart in the source and are kept apart here.

Legend:
[1] = system: Polaromonas sp.-derived PobA (PoPobA), protocatechuic acid 5-hydroxylase, wild type, SEQ ID NO: 22; test: Reaction kinetic analysis of PoPobA; assay type: biochemical; details: 200 µM NADPH, 10 µM FAD, pH 7.9, 25° C., 340 nm
Excerpt: By the same procedures, a target pRSF-PoPobA plasmid was obtained based on the gene sequence information of Polaromonas sp.-derived PobA (PoPobA) (SEQ ID NO: 7). The base sequences of primers 5 and 6 used are shown below.

[2] = system: Hydrogenophaga sp.-derived PobA (HyPobA), protocatechuic acid 5-hydroxylase, wild type, SEQ ID NO: 21; test: Reaction kinetic analysis of HyPobA; assay type: biochemical; details: 200 µM NADPH, 10 µM FAD, pH 7.9, 25° C., 340 nm
Excerpt: By the same procedures, a target […] plasmid was obtained based on the gene sequence information of Hydrogenophaga sp.-derived PobA (HyPobA) (SEQ ID NO: 4). The base sequences of primers 3 and 4 used are shown below.

[3] = target: Pseudomonas aeruginosa-derived PobA (PaPobA), p-hydroxybenzoate hydroxylase, wild type, SEQ ID NO: 28 (Pseudomonas aeruginosa, UniProt P20586); test: Reaction kinetic analysis of PaPobA (comparison); details: PCA substrate (2 mM), 200 µM NADPH, 10 µM FAD, pH 7.9, 25° C., 340 nm
Chain of Pseudomonas aeruginosa-derived PobA (PaPobA), p-hydroxybenzoate hydroxylase, wild type, SEQ ID NO: 28 (P20586 whole entry): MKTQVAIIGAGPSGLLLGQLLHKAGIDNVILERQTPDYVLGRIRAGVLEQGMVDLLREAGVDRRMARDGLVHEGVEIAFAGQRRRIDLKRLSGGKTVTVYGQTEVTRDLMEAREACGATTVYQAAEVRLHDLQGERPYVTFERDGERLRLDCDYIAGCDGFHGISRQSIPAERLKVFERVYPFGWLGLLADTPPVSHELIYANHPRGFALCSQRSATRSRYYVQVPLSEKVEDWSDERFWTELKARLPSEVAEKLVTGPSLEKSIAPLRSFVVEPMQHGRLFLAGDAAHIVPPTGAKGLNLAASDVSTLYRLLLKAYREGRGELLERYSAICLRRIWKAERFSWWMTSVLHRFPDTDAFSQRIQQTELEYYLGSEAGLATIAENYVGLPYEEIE
Excerpt: A polynucleotide encoding Pseudomonas aeruginosa-derived PobA was artificially synthesized based on the gene sequence information of Pseudomonas aeruginosa-derived PobA (PaPobA) (SEQ ID NO: 14).

[4] = target: Hylemonella gracilis-derived PobA (HgPobA, SEQ ID NO: 20) variant HgPobA-TY, T302A/Y393F (gene SEQ ID NO: 37) (Hylemonella gracilis, UniProt F3KT36, T302A/Y393F); test: Reaction kinetic analysis of HgPobA-TY
Chain of Hylemonella gracilis-derived PobA (HgPobA, SEQ ID NO: 20) variant HgPobA-TY, T302A/Y393F (gene SEQ ID NO: 37) (F3KT36 1-402 T302A/Y393F): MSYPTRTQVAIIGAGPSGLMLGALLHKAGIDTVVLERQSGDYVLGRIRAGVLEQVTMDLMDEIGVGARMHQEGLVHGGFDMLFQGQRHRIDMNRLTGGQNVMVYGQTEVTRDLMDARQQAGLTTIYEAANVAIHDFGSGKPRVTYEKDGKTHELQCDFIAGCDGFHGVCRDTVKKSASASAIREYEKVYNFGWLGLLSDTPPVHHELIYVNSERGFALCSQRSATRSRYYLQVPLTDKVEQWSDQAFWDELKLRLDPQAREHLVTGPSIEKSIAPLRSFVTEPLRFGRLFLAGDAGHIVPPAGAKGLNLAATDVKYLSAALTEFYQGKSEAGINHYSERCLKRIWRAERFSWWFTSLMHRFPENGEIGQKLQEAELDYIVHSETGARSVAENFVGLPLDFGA
Description: The cell-free extracts were subjected to a HisTrap HP column (GE healthcare) which was equilibrated with an equilibration buffer (20 mM Tris-HCl buffer (pH 7.9), 20 mM imidazole), and then fractions eluted with an eluent (20 mM Tris-HCl buffer (pH 7.9), 500 mM imidazole) were collected.
The protein concentrations of the purified enzyme liquids were measured using Bio-Rad Protein Assay Dye Reagent Concentrate (Bio-Rad, USA), and the purified enzyme liquids were diluted to 1 of mg/mL with a buffer.

[5] = read-out: Km^app (pHBA), pHBA substrate
[6] = PCA substrate, read-out: Km^app (PCA)

Row | SMILES | Km [1, 5] [µM] | Km [2, 5] [µM] | kcat^app (PCA) [3] [s⁻¹] | kcat value for PCA relative to PaPobA ([4]; HgPobA-TY versus PaPobA) [times] | kcat^app (PCA) ([4]; PCA substrate (2 mM), 200 µM NADPH, 10 µM FAD, pH 7.9, 25° C., 340 nm) [s⁻¹] | kcat^app (PCA) ([1]; PCA substrate (2 mM)) [s⁻¹] | Km [1, 6] [µM] | kcat^app (PCA) ([2]; PCA substrate (2 mM)) [s⁻¹] | Km [2, 6] [µM]
1 | O=C(O)c1ccc(O)cc1 [pHBA, p-hydroxybenzoic acid] | 340 | 56 |  |  |  |  |  |  | 
2 | O=C(O)c1ccc(O)c(O)c1 [PCA, protocatechuic acid] |  |  | 0.50 | 3.6 | 1.8 | 2.7 | 920 | 6.6 | 570
